Data reported in patent publication US20110076293A1, “TRIPTOLIDE DERIVATIVES FOR MODULATION OF APOPTOSIS AND IMMUNOSUPPRESSION” (priority 2002, published 2011).

Tested on: IL-2 production in Jurkat human T lymphocyte cells
Assay: IL-2 production assay for activity of compounds incubated with human serum
[1] = Table 7, Jurkat cells (48 hrs), 0.001 nM
[2] = Table 7, Jurkat cells (48 hrs), 0.01 nM
[3] = Table 7, Jurkat cells (48 hrs), 0.1 nM
[4] = Table 7, Jurkat cells (48 hrs), 1 nM
[5] = Table 7, Jurkat cells (48 hrs), 10 nM
[6] = Table 7, Jurkat cells (48 hrs), 100 nM
[7] = Table 7, Jurkat cells (48 hrs), 1000 nM
[8] = Table 7, Jurkat cells (48 hrs), 10000 nM
[9] = Table 8, Jurkat cells, 0.0001 nM
[10] = Table 8, Jurkat cells, 0.001 nM
[11] = Table 8, Jurkat cells, 10000 nM

Structure (SMILES)	IL-2 pg/mL at given concentration (nM) [1] [pg/mL]	IL-2 pg/mL at given concentration (nM) [2] [pg/mL]	IL-2 pg/mL at given concentration (nM) [3] [pg/mL]	IL-2 pg/mL at given concentration (nM) [4] [pg/mL]	IL-2 pg/mL at given concentration (nM) [5] [pg/mL]	IL-2 pg/mL at given concentration (nM) [6] [pg/mL]	IL-2 pg/mL at given concentration (nM) [7] [pg/mL]	IL-2 pg/mL at given concentration (nM) [8] [pg/mL]	IL-2 pg/mL at given concentration (nM) [9] [pg/mL]	IL-2 pg/mL at given concentration (nM) [10] [pg/mL]	IL-2 pg/mL at given concentration (nM) (Table 8, Jurkat cells, 0.01 nM) [pg/mL]	IL-2 pg/mL at given concentration (nM) (Table 8, Jurkat cells, 0.1 nM) [pg/mL]	IL-2 pg/mL at given concentration (nM) (Table 8, Jurkat cells, 1 nM) [pg/mL]	IL-2 pg/mL at given concentration (nM) (Table 8, Jurkat cells, 10 nM) [pg/mL]	IL-2 pg/mL at given concentration (nM) (Table 8, Jurkat cells, 100 nM) [pg/mL]	IL-2 pg/mL at given concentration (nM) (Table 8, Jurkat cells, 1000 nM) [pg/mL]	IL-2 pg/mL at given concentration (nM) [11] [pg/mL]	also measured
CC(C)[C@]12O[C@H]1[C@@H]1O[C@]13[C@]1(O[C@H]1C[C@H]1C4=C(CC[C@@]13C)C(=O)OC4)[C@@H]2OC(=O)CCC(=O)O [PG490-88, triptolide-14-succinate, reference compound]	776.4	771.0	809.5	732.4	605.1	317.5	65.9	58.2	96.1	83.0	87.5	86.3	88.2	42.7	14.0	8.4	23.8	IC50 (IL-2 production in Jurkat cells after incubation with pooled human serum for 48 hours at 37° C.): 9 nM; Conversion (%) (percent of the IC50 value produced by triptolide (PG490) in the same experiment, human serum 48 hours): 51%
CCNC(=O)O[C@@H]1[C@@]2(C(C)C)O[C@H]2[C@@H]2O[C@]23[C@]12O[C@H]2C[C@H]1C2=C(CC[C@@]13C)C(=O)OC2 [PG666, Triptolide 14-Ethyl Carbamate]	844.6	799.8	860.6	773.0	819.1	528.0	180.1	63.5	94.3	105.1	97.0	92.8	80.0	89.8	33.3	10.0	8.0	concentration for equal IL-2 inhibitory activity relative to the active concentration of PG490: 10-30 times; bioactivity in IL-2 inhibition assays (in words) (FIGS. 4-5): some level of bioactivity
CC(C)[C@]12O[C@H]1[C@@H]1O[C@]13[C@]1(O[C@H]1C[C@H]1C4=C(CC[C@@]13C)C(=O)OC4)[C@@H]2O [PG490, Triptolide]	929.7	908.6	937.8	835.2	556.1	120.7	62.9	59.2	80.0	97.2	83.2	87.1	75.7	25.5	17.8	12.9	22.3	–
